# Test results from ChEMBL document CHEMBL1201862, “PubChem BioAssay data set” (2004).
#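 Values below derive from 48-hour exposures of cells grown in 96-well plates, with endpoints linearly interpolated between the two concentrations bracketing the appropriate inhibition level. GI50 = concentration required for 50% inhibition of growth.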 Activity calls are given as the source filed them. Cut-off read from the data, not from the text of the source: active = GI50 up to about 1.1 µM and inactive = higher.
# Legend:
# Assay in all cases: growth of human tumour cells (NCI), 48 h
# 786-0 = test system: 786-0
# A549 = test system: A549
# ACHN = test system: ACHN
# CAKI-1 = test system: CAKI-1
# CCRF-CEM = test system: CCRF-CEM
# COLO 205 = test system: COLO 205
# DLD-1 = test system: DLD-1
# DMS-114 = test system: DMS-114
# DMS-273 = test system: DMS-273
# EKVX = test system: EKVX
# HCC 2998 = test system: HCC 2998
# HCT-116 = test system: HCT-116
# HCT-15 = test system: HCT-15
# HL-60 = test system: HL-60
# HOP-18 = test system: HOP-18
# HOP-92 = test system: HOP-92
# HT-29 = test system: HT-29
# IGROV-1 = test system: IGROV-1
# K562 = test system: K562
# KM12 = test system: KM12
# LOX IMVI = test system: LOX IMVI
# LXFL 529 = test system: LXFL 529
# M14 = test system: M14
# M19-MEL = test system: M19-MEL
# MOLT-4 = test system: MOLT-4
# Malme-3M = test system: Malme-3M
# NCI-H226 = test system: NCI-H226
# NCI-H23 = test system: NCI-H23
# NCI-H460 = test system: NCI-H460
# OVCAR-3 = test system: OVCAR-3
# OVCAR-8 = test system: OVCAR-8
# RPMI-8226 = test system: RPMI-8226
# RXF 393 = test system: RXF 393
# RXF 631 = test system: RXF 631
# SF-295 = test system: SF-295
# SF-539 = test system: SF-539
# SK-MEL-28 = test system: SK-MEL-28
# SK-MEL-5 = test system: SK-MEL-5
# SK-OV-3 = test system: SK-OV-3
# SN12C = test system: SN12C
# SNB-75 = test system: SNB-75
# SNB-78 = test system: SNB-78
# SW-620 = test system: SW-620
# TK-10 = test system: TK-10
# U-251 = test system: U-251
# UACC-257 = test system: UACC-257
# UACC-62 = test system: UACC-62
# UO-31 = test system: UO-31
# A498 = test system: A498
# HOP-62 = test system: HOP-62
# KM-20L2 = test system: KM-20L2
# NCI-H522 = test system: NCI-H522
# OVCAR-4 = test system: OVCAR-4
# OVCAR-5 = test system: OVCAR-5
# SF-268 = test system: SF-268
# SK-MEL-2 = test system: SK-MEL-2
# SNB-19 = test system: SNB-19
# SR = test system: SR
# XF498 = test system: XF498
compound,measurement,setting,value
Oc1cccc(-c2cccc(O)n2)n1,GI50,786-0,> 100 µM (inactive)
same,GI50,A549,> 100 µM (inactive)
same,GI50,ACHN,> 100 µM (inactive)
same,GI50,CAKI-1,> 100 µM (inactive)
same,GI50,CCRF-CEM,> 100 µM (inactive)
same,GI50,COLO 205,> 100 µM (inactive)
same,GI50,DLD-1,> 100 µM (inactive)
same,GI50,DMS-114,> 100 µM (inactive)
same,GI50,DMS-273,> 100 µM (inactive)
same,GI50,EKVX,> 100 µM (inactive)
same,GI50,HCC 2998,> 100 µM (inactive)
same,GI50,HCT-116,> 100 µM (inactive)
same,GI50,HCT-15,> 100 µM
same,GI50,HL-60,> 100 µM (inactive)
same,GI50,HOP-18,> 100 µM (inactive)
same,GI50,HOP-92,26.3 µM (inactive)
same,GI50,HT-29,> 100 µM (inactive)
same,GI50,IGROV-1,> 100 µM (inactive)
same,GI50,K562,> 100 µM (inactive)
same,GI50,KM12,> 100 µM (inactive)
same,GI50,LOX IMVI,> 100 µM (inactive)
same,GI50,LXFL 529,> 100 µM (inactive)
same,GI50,M14,> 100 µM (inactive)
same,GI50,M19-MEL,> 100 µM (inactive)
same,GI50,MOLT-4,> 100 µM (inactive)
same,GI50,Malme-3M,> 100 µM (inactive)
same,GI50,NCI-H226,> 100 µM (inactive)
same,GI50,NCI-H23,> 100 µM (inactive)
same,GI50,NCI-H460,> 100 µM (inactive)
same,GI50,OVCAR-3,> 100 µM (inactive)
same,GI50,OVCAR-8,> 100 µM (inactive)
same,GI50,RPMI-8226,> 100 µM (inactive)
same,GI50,RXF 393,> 100 µM (inactive)
same,GI50,RXF 631,> 100 µM (inactive)
same,GI50,SF-295,> 100 µM (inactive)
same,GI50,SF-539,> 100 µM (inactive)
same,GI50,SK-MEL-28,> 100 µM (inactive)
same,GI50,SK-MEL-5,> 100 µM (inactive)
same,GI50,SK-OV-3,> 100 µM (inactive)
same,GI50,SN12C,> 100 µM (inactive)
same,GI50,SNB-75,> 100 µM (inactive)
same,GI50,SNB-78,> 100 µM (inactive)
same,GI50,SW-620,> 100 µM (inactive)
same,GI50,TK-10,> 100 µM (inactive)
same,GI50,U-251,> 100 µM (inactive)
same,GI50,UACC-257,> 100 µM (inactive)
same,GI50,UACC-62,> 100 µM (inactive)
same,GI50,UO-31,> 100 µM (inactive)
N#Cc1ccc(Oc2ccccc2)cc1C#N,GI50,786-0,> 100 µM (inactive)
same,GI50,A498,> 100 µM (inactive)
same,GI50,A549,> 100 µM (inactive)
same,GI50,ACHN,> 100 µM (inactive)
same,GI50,CAKI-1,63.4 µM (inactive)
same,GI50,CCRF-CEM,22.4 µM (inactive)
same,GI50,COLO 205,23.2 µM (inactive)
same,GI50,DLD-1,65.2 µM (inactive)
same,GI50,DMS-114,23.7 µM (inactive)
same,GI50,DMS-273,17.4 µM (inactive)
same,GI50,EKVX,> 100 µM (inactive)
same,GI50,HCC 2998,> 100 µM (inactive)
same,GI50,HCT-116,74.8 µM (inactive)
same,GI50,HCT-15,19.1 µM
same,GI50,HL-60,28.2 µM (inactive)
same,GI50,HOP-18,> 100 µM (inactive)
same,GI50,HOP-62,> 100 µM (inactive)
same,GI50,HOP-92,> 100 µM (inactive)
same,GI50,HT-29,53.2 µM (inactive)
same,GI50,IGROV-1,> 100 µM (inactive)
same,GI50,K562,49.3 µM (inactive)
same,GI50,KM-20L2,> 100 µM (inactive)
same,GI50,KM12,> 100 µM (inactive)
same,GI50,LOX IMVI,20.7 µM (inactive)
same,GI50,LXFL 529,42.6 µM (inactive)
same,GI50,M14,> 100 µM (inactive)
same,GI50,M19-MEL,54.2 µM (inactive)
same,GI50,MOLT-4,59.3 µM (inactive)
same,GI50,Malme-3M,> 100 µM (inactive)
same,GI50,NCI-H226,> 100 µM (inactive)
same,GI50,NCI-H23,> 100 µM (inactive)
same,GI50,NCI-H460,33.1 µM (inactive)
same,GI50,NCI-H522,23.4 µM (inactive)
same,GI50,OVCAR-3,> 100 µM (inactive)
same,GI50,OVCAR-4,96.2 µM (inactive)
same,GI50,OVCAR-5,> 100 µM (inactive)
same,GI50,OVCAR-8,> 100 µM (inactive)
same,GI50,RPMI-8226,42.8 µM (inactive)
same,GI50,RXF 393,> 100 µM (inactive)
same,GI50,SF-268,> 100 µM (inactive)
same,GI50,SF-295,> 100 µM (inactive)
same,GI50,SF-539,> 100 µM (inactive)
same,GI50,SK-MEL-28,> 100 µM (inactive)
same,GI50,SK-MEL-2,82.4 µM (inactive)
same,GI50,SK-MEL-5,> 100 µM (inactive)
same,GI50,SK-OV-3,> 100 µM (inactive)
same,GI50,SN12C,96.4 µM (inactive)
same,GI50,SNB-19,> 100 µM (inactive)
same,GI50,SNB-75,72.3 µM (inactive)
same,GI50,SNB-78,54.6 µM (inactive)
same,GI50,SR,20.4 µM (inactive)
same,GI50,TK-10,> 100 µM (inactive)
same,GI50,U-251,44.3 µM (inactive)
same,GI50,UACC-257,> 100 µM (inactive)
same,GI50,UACC-62,> 100 µM (inactive)
same,GI50,UO-31,92.3 µM (inactive)
same,GI50,XF498,> 100 µM (inactive)
COc1ccc(/C(Cl)=C(\C=O)c2ccc(F)cc2)cc1,GI50,A498,17.4 µM (inactive)
same,GI50,ACHN,6.14 µM (inactive)
same,GI50,CAKI-1,8.18 µM (inactive)
same,GI50,CCRF-CEM,3.14 µM (inactive)
same,GI50,COLO 205,16.6 µM (inactive)
same,GI50,DLD-1,8.17 µM (inactive)
same,GI50,DMS-114,7.55 µM (inactive)
same,GI50,DMS-273,14.9 µM (inactive)
same,GI50,EKVX,16.9 µM (inactive)
same,GI50,HCT-116,5.08 µM (inactive)
same,GI50,HCT-15,4.24 µM
same,GI50,HL-60,2.72 µM (inactive)
same,GI50,HOP-18,6.58 µM (inactive)
same,GI50,HOP-62,9.59 µM (inactive)
same,GI50,HOP-92,4.29 µM (inactive)
same,GI50,HT-29,7.41 µM (inactive)
same,GI50,IGROV-1,18.9 µM (inactive)
same,GI50,K562,4.78 µM (inactive)
same,GI50,KM-20L2,6.87 µM (inactive)
same,GI50,LOX IMVI,7.03 µM (inactive)
same,GI50,LXFL 529,6.27 µM (inactive)
same,GI50,M14,12.9 µM (inactive)
same,GI50,M19-MEL,15 µM (inactive)
same,GI50,MOLT-4,3.56 µM (inactive)
same,GI50,Malme-3M,13.7 µM (inactive)
same,GI50,NCI-H226,11.7 µM (inactive)
same,GI50,NCI-H23,14.8 µM (inactive)
same,GI50,NCI-H460,4.46 µM (inactive)
same,GI50,NCI-H522,4.06 µM (inactive)
same,GI50,OVCAR-3,19.1 µM (inactive)
same,GI50,OVCAR-8,10.8 µM (inactive)
same,GI50,RPMI-8226,4.49 µM (inactive)
same,GI50,RXF 631,19.8 µM (inactive)
same,GI50,SF-268,8.36 µM (inactive)
same,GI50,SF-295,8.43 µM (inactive)
same,GI50,SF-539,15.5 µM (inactive)
same,GI50,SK-MEL-28,16.7 µM (inactive)
same,GI50,SK-MEL-2,8.83 µM (inactive)
same,GI50,SK-MEL-5,9.06 µM (inactive)
same,GI50,SK-OV-3,40 µM (inactive)
same,GI50,SN12C,9.98 µM (inactive)
same,GI50,SNB-19,17.9 µM (inactive)
same,GI50,SNB-75,2.27 µM (inactive)
same,GI50,SNB-78,7.53 µM (inactive)
same,GI50,SW-620,6.81 µM (inactive)
same,GI50,TK-10,33.1 µM (inactive)
same,GI50,U-251,6.58 µM (inactive)
same,GI50,UACC-62,9.08 µM (inactive)
same,GI50,UO-31,8.15 µM (inactive)
